Measurements taken from patent publication US20090232735A1, “USE OF FRUCTOSE-BASED THERAPIES FOR THE TREATMENT OF CANCER” (CEDARS-SINAI MEDICAL CENTER, priority 2005, published 2009).

What was measured:
[1] = Serum fructose and glucose in normal volunteers after two cans of soda; format: in vivo, human
Experimental: FIG. 37 depicts fasting serum fructose and glucose levels in patients with pancreatic cancer and in normal volunteers in accordance with an embodiment of the present invention. (a) Fasting serum fructose and glucose levels in 6 patients with pancreatic cancer on the morning of resection. (b) Serum fructose, and glucose levels (Mean±SEM) in 3 normal volunteers after a 10 h fast, followed by ingestion of two cans of soda, containing 76 g of carbohydrate in the form of high fructose corn syrup (55% fructose, 45% glucose).
The normal circulating concentrations of fructose are unknown. […] Briefly, aliquots (20 μl) of fructose standards (0.1, 0.5, 1, 2, 4, 6, and 8 mM) or unknown serum samples were mixed with 5 μl of a stock solution (125 U/ml) of the enzyme fructose dehydrogenase (Sigma) in 175 μl citric acid (0.05 M) phosphate (0.09 M) buffer (pH 4.5), and 20 μl of 3-(4,5-dimethylthiazol-2-yl)-2,5-diphenyltetrazolium bromide (MTT), and phenazine methosulfate (Promega), incubated for 30 minutes, after which absorbance at 570 nm was recorded in a 96-well spectrophotometer. […] As the first analysis, in accordance with institutional review board guidelines, the inventors obtained 32 serum samples randomly selected from anonymous inpatients at Cedars-Sinai Medical Center. The inventors also measured glucose in these same samples using standard glucose oxidase based methods. No details of medical condition were known for these patients, and as depicted in FIG. 36, in 24 of these 32 patients, serum fructose was greater than 5 mM. This intriguing result prompted the inventors to examine serum fructose levels in two other settings. Firstly, the inventors drew fasting blood samples from 6 patients with pancreatic cancer on the morning of surgical tumor resection. As depicted in FIG. 37a, 4 of these 6 patients had fasting serum fructose levels >5 mM, and two patients had serum fructose concentrations of ˜12 mM. The significance of these findings in pancreatic cancer patients is at this point unclear, but the inventors believe that the fructose-mediated pro-proliferative effects seen in pancreatic cancer cells in vitro are of significance, given the circulating fructose concentrations the inventors measured. In a further experiment, 3 normal volunteers fasted for 10 hours, an indwelling cannula was placed in a forearm vein, baseline fasting blood drawn, after which they drank two cans of regular soda, which contained 76 g of sugars, almost exclusively high fructose corn syrup. This source of carbohydrate was chosen to approximate to equivalent glucose concentrations used in a standard 75 g glucose tolerance test, and to bear relevance that dietary sources of high content refined fructose may pose an independent risk factor for pancreatic cancer growth.

[2] = test system: proliferating cell nuclear antigen (PCNA); test: PCNA Western blot in PANC-1 cells; format: cell-based, human; conditions: PANC-1, 5.5 mM sugar, 48 h, compared to 2 mM glucose
Experimental: FIG. 19 depicts PCNA expression in accordance with an embodiment of the present invention. PANC-1 cells were plated in 2 mM, and 5.5 mM glucose, or 5.5 mM fructose for 48 h, after which proliferating cell nuclear antigen (PCNA) levels were measured by Western blot analysis.
Additionally, protein extracts were harvested in RIPA buffer from the PANC-1 cells following 2 mM, 5.5 mM glucose-, and fructose-treatment for 48 h, analyzed by Western blot, and immunoblotted using a specific monoclonal antibody to proliferating cell nuclear antigen (PCNA).

[3] = test system: PANC-1 pancreatic cancer cells; test: PANC-1 pancreatic cancer cell proliferation (MTS assay); format: cell-based, human
Experimental: FIG. 13 depicts higher proliferation rates in pancreatic cancer cells in fructose (5.5 mM) than glucose (5.5 mM) containing medium in accordance with an embodiment of the present invention. PANC-1 cells were pre-incubated in 2 mM glucose, after which they were plated in 5.5 mM fructose or glucose for times between 12-72 h, after which proliferative rates were measured using an MTS assay. Proliferative rates are expressed as the percentage difference between cells grown in 5.5 mM fructose versus 5.5 mM glucose. p<0.01 for times>48 h.
FIG. 14 depicts proliferation rates of pancreatic cells in different fructose or glucose concentrations in accordance with an embodiment of the present invention. PANC-1 cells were plated in a range of fructose or glucose concentrations (5-25 mM) for 72 h, after which proliferative rates were measured using an MTS assay. *, p<0.05 for concentrations between 5-25 mM fructose versus glucose.
FIG. 17 depicts cell proliferation regardless of co-existent glucose concentration in accordance with an embodiment of the present invention. PANC-1 cells were pre-incubated in 2 mM glucose prior to treatment with a range of concentrations (0-15 mM) mixed with a range of fructose concentrations (0-15 mM) for 72 h. PANC-1 cell proliferative rates were then measured using the MTS assay (absorbance in arbitrary units).
FIG. 35 depicts inhibition of pancreatic cancer PANC-1 cell proliferation by incubation with the transketolase inhibitor, oxythiamine (0.5-2 mM) for 72 h in accordance with an embodiment of the present invention. Proliferative rates were measured using the MTS proliferation assay.
Standard media for maintenance cancer cell line culture, including pancreatic cancer cells such as PANC-1 cells contain either low—(5-7 mM), or high—(12-25 mM) glucose concentrations. Clearly, apart from the setting of hyperglycemia, as in patients with diabetes, the glucose concentrations in which pancreatic cancer cells are maintained in vitro are much higher than normal physiological conditions, which range between 2-5 mM glucose. […] Therefore, the inventors first pre-treated the pancreatic cancer cells overnight in standard DMEM medium containing low physiological glucose concentrations (2 mM glucose), and standard 10% fetal bovine serum. The pancreatic cancer cells were then incubated for times between 12, and 96 hours in standard DMEM medium containing 10% fetal bovine serum, and 5.5 mM glucose or 5.5 mM fructose. Proliferative rates were then measured in replicate (minimum of 6) aliquot wells of the pancreatic cancer cells, and the change (expressed as percent increase) in proliferative rates compared between cells grown in glucose, or fructose containing medium.
This first result intrigued the inventors, but given there is little documentation regarding physiological fructose concentrations, the inventors first considered that the “apparent” pro-proliferative effects of fructose were simply a consequence of the highly stylized in vitro experimental conditions, and that if the pancreatic cancer cells were cultured in higher glucose concentrations, this would result in similar proliferative rates to those the inventors observed following culture in 5.5 mM fructose. Therefore, in the next experiments, the inventors compared proliferative rates of the PANC-1 pancreatic cancer cells following culture for 72 h in a range of fructose, and glucose concentrations (2-25 mM). This timepoint was chosen as the inventors had seen maximal pancreatic cancer cell proliferation in 5.5 mM fructose at 72 h. […] While not wishing to be bound by any particular theory, the inventors believe that this latter finding may be because the PANC-1 cells are proliferating at close to maximal capacity by 72 h, once they are exposed to comparatively low fructose concentrations (5 mM). MTS assay was employed to measure pancreatic cancer cell proliferative rates, which utilizes mitochondrial oxidation to quantify cell proliferation. […]

Compound: O=C(CO)[C@@H](O)[C@H](O)[C@H](O)CO [fructose]
- mean fasting fructose level ([1]; 3 normal volunteers, 10 h fast, before soda): 2.66 mM
- mean serum fructose peak ([1]; 30 minutes after two sodas): 17 mM
- serum fructose levels ([1]; for the 2 hour duration of blood sampling after two sodas): greater than 5 mM
- mean serum fructose levels ([1]; within 15 minutes after two sodas (76 g sugars, high fructose corn syrup)): 16.5 mM
- PCNA expression [2]: highest PCNA levels
- difference in proliferative rates, fructose vs glucose ([3]; PANC-1, 5.5 mM fructose vs 5.5 mM glucose, 48 h): ~13%
- higher proliferative rate, fructose vs glucose ([3]; PANC-1, 5.5 mM fructose vs 5.5 mM glucose, 72 h): 23%
- proliferative rates in 5 mM fructose compared to 25 mM glucose ([3]; PANC-1, 72 h): higher proliferative rates
- cell proliferation with admixed glucose (0-15 mM) and fructose (0-15 mM) ([3]; PANC-1, 72 h, fructose concentrations of 6 mM and above, regardless of glucose concentration): an increase in cell proliferation
